Results taken from a melting point compilation (Tetko et al.; mined from patent text by program, amines drawn as free bases though some values may be those of a salt).

SMILES | melting point
CCOC(=O)c1cnc2cc(I)ccc2n1 | 160 to 162 °C
N#Cc1cccc(C=CC=O)c1 | 100 °C
CCn1c(N)c(C(=O)NC)c(=O)c2ccc(-c3ccc(NS(=O)(=O)c4cccc(Cl)c4Cl)c(F)c3)nc21 | 333 °C
CNc1cc(CC2(C)CC3C(=C(C)C(C)=C(N)C3C)O2)ccc1-c1ccn[nH]1 (stereo not drawn) | 113 to 117 °C
COc1c(C)cc(C)c(C2CC(=O)C=C(O)C2)c1C (stereo not drawn) | 165 to 166 °C
Cc1cccc(C(=O)Cc2ccnc(NC(=O)OC(C)(C)C)c2)c1 | 144 to 146 °C
Cc1cccc(Cl)c1NC(=O)/C=C1\SCC(=O)N1c1ccccc1 | 213 to 214 °C
COC(=O)Nc1cc(OS(=O)(=O)c2ccc(C)cc2)nc(N)n1 | 188 to 190 °C
Cc1ccc(NC(=O)c2ccccc2CN2C(=O)C3(COc4cc5c(cc43)CCO5)c3ccccc32)c(C)c1 (stereo not drawn) | 207 to 208 °C
CC=Cc1cc(C(=O)c2ccccc2F)c(Cl)c(Cl)c1O | 83 to 84 °C
CC(=O)Oc1ccc(CC(CCC(=O)O)N2C(=O)c3ccccc3C2=O)cc1 (stereo not drawn) | 142 to 144 °C
NC(=O)c1n[nH]c2ccc([N+](=O)[O-])cc12 | 221 to 226 °C
O=C(O)c1cn(-c2ccc(F)cc2)c2cc(N3CCNC(c4ccco4)C3)c(F)cc2c1=O (stereo not drawn) | 242 °C
Fc1cc(CC2(Cc3ccnc(F)c3)c3ccccc3Oc3ncccc32)ccn1 | 185 to 189 °C
CCc1n[nH]c(CC)c1CCCCCCOc1ccc(OC)cc1[N+](=O)[O-] | 103 to 105 °C
CC(Cl)c1ccccc1S(N)(=O)=O (stereo not drawn) | 121 to 122 °C
O=C(OCc1ccccc1)N(CCNC(=O)C(F)(F)F)CCNC(=O)C(F)(F)F | 131 to 132 °C
CN(C)Cc1ccc(CSCCNC(=N)N[N+](=O)[O-])o1 | 103 to 104 °C
NS(=O)(=O)c1ccccc1CCC(F)(F)F | 148 to 149 °C
CCOCc1nc2c(N)nc3cc(OCc4ccccc4OC)ccc3c2n1CC(C)C | 206 to 207 °C
c1ccc(-c2cc(N3CCCCC3)c(-c3ccccc3)o2)cc1 | 103 °C
O=C(O)C1=C(c2cc(-c3ccccc3)[nH]n2)CCCC1 | 207 to 209 °C
Clc1ccc2nc(CBr)c(CBr)nc2c1 | 149 to 150 °C
COC(=O)N(c1cc(C)ccc1C#N)C(C)C | 100 to 101 °C
CCN1C(=O)N(c2ccc(C#N)c(C(F)(F)F)c2)C(=O)C1(CF)CF | 129 to 130 °C
CCOC(=O)c1[nH]c(C)c(C(C)C)c1C | 105 to 108 °C

SMILES | melting point
COc1cc(=O)c(-c2ccnn2-c2ccccc2)nn1-c1cccc(C(F)(F)F)c1 | 139 to 141 °C
CC1(C)OC(=S)N(c2cc(F)cc(C(F)(F)F)c2)c2ccccc21 | 204 to 206 °C
Cc1cc2cc(C#N)c(Cl)nc2cc1C | 189 to 190 °C
CCOC(=O)c1cc(OC)c(OCCOC)cc1[N+](=O)[O-] | 68 to 69 °C
C=Cn1cc(C(=O)O)c(=O)c2ccc(Cl)cc21 | 269 °C
CCCc1ncc2cc(OC)nc(SC)n12 | 98 to 100 °C
Cc1ccc(-c2ccc3c(c2)C=C(C(=O)N2CCC(N)CC2)CCO3)cc1 | 123 to 127 °C
CCOC(=O)C(C#N)=CNc1ccc(CC)cn1 | 155 to 156 °C
CCCOc1cc(OCCC)c2c(=O)c(OCCC)c(-c3ccccc3)oc2c1 | 90 to 93 °C
CC(=O)Nc1ccc(S(=O)(=O)N2CCN(c3c(F)cc4c(=O)c(C(=O)O)cn(CC(C)C)c4c3F)CC2)cc1 | 181 to 183 °C
O=C(OCc1ccccc1Cl)c1ncn2c1[C@@H]1CCCN1C(=O)c1c(Cl)cccc1-2 | 192 to 193 °C
CCOC(=O)c1ccc(OCCOc2ccc(-c3onc(SC)c3C#N)cc2)cc1 | 162 to 164 °C
CC1(C)COC(c2c(F)cccc2C2(C)CCCC2)=N1 | 116 to 117 °C
CNC(=NS(=O)(=O)N1CCCCC1)N1CC(c2ccccc2)C(c2ccc(Cl)cc2)=N1 (stereo not drawn) | 175 to 177 °C
O=c1cc(OCc2ccccc2Cl)ccn1Cc1ccccc1 | 125 °C
O=[N+]([O-])c1cnc(Oc2cnc3ccccc3c2)c(Cl)c1 | 123 to 127 °C
Cc1nc(CC(N)=O)no1 | 112 to 114 °C
Cc1cc2c(cc1-c1cc(C=C3SC(=O)NC3=O)ccc1OC(F)(F)F)N(C)C(=O)CC2(C)C | 182 to 184 °C
CC(=O)C(C)=Cc1sccc1C | 72 °C
Cc1nn(-c2cncc(F)c2)cc1I | 87 to 88 °C
CCCc1c(OCCCCC(=O)c2ccc3cc(OC)c(OC)cc3c2)ccc(C(=O)O)c1O | 177 to 178 °C
CCN(CC)C(=O)n1cc(Br)c(S(=O)(=O)c2cc(C)ccc2C)n1 | 83 to 84 °C
Cc1cc(C)n(-c2nc(-c3ccc(Cl)cc3)c(CCCOc3ccccc3C)o2)n1 | 103 to 104 °C
O=C(COc1cc(Cl)c(Cl)c([N+](=O)[O-])c1)c1ccccc1 | 118 to 126 °C
COC(=O)Cc1c(C)nn(-c2ccccc2)c1C | 63 to 64 °C
C/C(=N\O)C(=O)c1ccc(F)cc1F | 99 to 101 °C

SMILES | melting point
COc1cc(NS(=O)(=O)c2ccc(Cl)cc2)c(C(=O)Nc2ccc(S(=O)(=O)F)cc2)cc1OC | 216 to 219 °C
O=C(O)c1cn(-c2ccc(F)c(O)c2)c2c(Cl)c(F)c(F)cc2c1=O | > 280 °C
Cc1ccc(-c2cn3c(n2)sc2cc(O)ccc23)cc1 | 275 to 277 °C
CC1CCc2c(-c3ccccc3)nc(=O)n(C(C)C)c2C1 (stereo not drawn) | 150 to 153 °C
O=[N+]([O-])N=C1N(COCCBr)CCN1Cc1ccc(Cl)nc1 | 90 to 92 °C
CC1(N2Cc3ccccc3C2=O)CCC(=O)NC1=O (stereo not drawn) | 231 to 232 °C
O=C(Cc1ccc(SC(F)(F)F)cc1)NCc1ccc2c(c1)CN(C1CCC(=O)NC1=O)C2=O (stereo not drawn) | 208 to 210 °C
CCn1cc(C(=O)Nc2nccs2)c2ccc(Cl)cc21 | 234 to 236 °C
COc1cc(Cl)ccc1C(=O)NC1COCCn2c1nc(-c1ccncn1)cc2=O (racemic) | 274 to 276 °C
N#Cc1ccc(C=C2CCCC2)s1 | 98 to 100 °C
Cc1nc2ccc(Cl)nn2c1C(=O)c1ccc(Cl)cc1F | 160 °C
OCc1cn(Cc2ccc(Cl)cc2)nc1CN1CCC(c2ccccc2)(c2ccccc2)CC1 | 104 to 105 °C
CN(Cc1ccccc1)CC1CNC(=O)c2cccc3[nH]cc1c23 (stereo not drawn) | 191 to 193 °C
O=C(Nc1cccc(C(F)(F)F)c1)C(F)(F)F | 69 °C
COC(=O)C(C)c1ccc(N2Cc3ccccc3C2=O)cc1 (stereo not drawn) | 128 °C
CC1=CN2CCS(=O)(=O)N=C2C(c2ccc(OC3CCCCC3)cc2)=N1 | 216 to 217 °C
CCOc1ccc(-c2[nH]nc3c2C(=O)c2c(NC(C)=O)cccc2-3)cc1 | 288 °C
CCC(C(=O)c1ccc(NS(C)(=O)=O)cc1)c1ccccc1 (stereo not drawn) | 143 to 147 °C
C#Cc1ccc(-c2c(C)nnc(OC)c2-c2c(F)cc(OC)cc2F)cc1 | 192 to 193 °C
O=C(O)CCCOc1cc(-c2ccccc2)nc2ccccc12 | 264 °C
COc1ccc(OC)c2c(O)c(C#N)cnc12 | 300 to 305 °C
O=C1Cc2ccccc2N1c1c(Cl)cc(OCc2ccc3ccccc3n2)cc1Cl | 158 °C
CC(C)n1c2c(c(-c3ccccc3)nc1=O)CCCCCCCCCC2 | 173 to 176 °C
O=C(O)C1CC2CCCCC2CN1C(S)c1nn[nH]n1 (stereo not drawn) | 165 to 172 °C
CC(C)(C)c1cc(C(O)C#Cc2ccc(C(=O)O)c(O)c2)cc(C(C)(C)C)c1OCOCC[Si](C)(C)C (stereo not drawn) | 146 to 147 °C
O=C1N(Cc2cccnn2)c2ccccc2C12COc1cc3c(cc12)CCO3 (stereo not drawn) | 81 to 82 °C

SMILES | melting point
COc1ccc(-c2cnc3c(-c4ccccc4)nc(-c4cccc(OC)c4)nc3c2)cc1 | 131 to 132 °C
CCCCOC(=O)c1ccccc1OC(=O)N(C)SN(C)C(=O)ON=C(C)SC | 68 to 74 °C
COc1cc2nc(N3CCN(C(=O)C=Cc4ccc(Br)cc4)CC3)nc(N)c2cc1OC | 266 to 268 °C
CC1(C)CC(=O)c2c(SCc3ccccc3)c[nH]c2C1 | 220 to 223 °C
CCCN(C(C)C)C(C)CC1=C(c2ccc(OC)cc2)CCCNC1=O (stereo not drawn) | 90 to 92 °C
Cc1cccc2c1C(NCCSCc1ccc(CN(C)C)o1)=NS2(=O)=O | 90 to 92 °C
C[Si](C)(C)N1CCN(N=Cc2ccccc2)C(=O)C1=O | 190 to 191 °C
O=C(Nc1ccc(-c2c[nH]c(=O)cn2)cc1)c1ccncc1 | 303 to 308 °C
Oc1cc(Br)cc(-c2ccc3nonc3c2)c1 | 179 to 181 °C
CC1(C)CCC(C)(C)c2cc(C(O)C3CCCCC3C(=O)O)ccc21 (stereo not drawn) | 186 °C
Clc1cc2ccccc2c(N2CCSCC2)n1 | 133 °C
N#Cc1cccc(Oc2ccc(CBr)cc2)c1C#N | 130 to 132 °C
CSc1nc(-c2ccc(S(C)(=O)=O)cc2)n(-c2ccc(C)c(C)c2)c(=O)c1C#N | 245 to 247 °C
C#CCn1c(C(F)(F)F)cc2ccccc21 | 59 °C
O=c1n(CC(F)(F)F)c2cc(F)ccc2n1C1CCNCC1 | > 280 °C
O=C(Nc1ccc([N+](=O)[O-])cc1)N1CC=CCC1 | 169 to 170 °C
Cc1cc(C)c(S(=O)(=O)NC(CN2CCCc3cc(C)ccc32)C(F)(F)F)c(C)c1 (stereo not drawn) | 143 to 144 °C
O=C1c2ccccc2-c2c1c(-n1ccnc1)nc1ccc(Br)cc21 | 283 to 285 °C
CN(c1cccc2cc(-c3nc(CCC(N)=O)cs3)[nH]c12)S(=O)(=O)c1cccs1 | 200 to 201 °C
Cc1ccc(C(CCN(C(C)C)C(C)C)(CCN(C(C)C)C(C)C)C(N)=O)cc1 | 97 to 100 °C
O=C(O)Cc1ccccc1CC(=O)Nc1cccc(/C=C/c2nc(C3CCC3)cs2)c1 | 160 to 162 °C
CC(=O)c1ccc(-c2cnc3c(c2)N(Cc2ccccc2)C(=O)CN3)cc1 | 200 °C
Nc1ccccc1N1CCN(CCCOc2cccc3c2CCCC3)CC1 | 100 to 101 °C
COc1cc(Cc2cnc(N)nc2N)cc(-c2ccc(N(C)C)cc2)c1OC | 230 °C
O=C1N=CC(OCC2CC2)(C(F)(F)F)c2cc(F)ccc2N1 (stereo not drawn) | 198 to 199 °C
